Assays:
[1] = test system: prostate, lung and colorectal cancer; details: selenium supplements, humans; cited from earlier work
[2] = test system: Saccharomyces cerevisiae; details: Saccharomyces cerevisiae (brewer's/baker's yeast); cited from earlier work
[3] = test system: Candida albicans; details: cited from earlier work
[4] = test system: leukemia; details: human, in vivo; cited from earlier work
[5] = test system: PSA levels; details: men with prostate cancer; cited from earlier work
[6] = test system: prostate cancer; test: Case 4: person with prostate cancer on Phase I diet and antifungals; format: in vivo, man; details: one patient; Phase I diet 2 months, nystatin 2 months, then UGN, Caprylic acid, GSE; PSA closer to 4.0 at cancer diagnosis
From the text: 4. A person was diagnosed as having prostrate cancer. UTSW study for BPH ×5-6 yrs. Biopsy prior and post program. Normal PSA! At post-study diagnosis, cancer was found: October 2001. They moved to OKC and started watching Doug's show.
Past history includes heavy use of antibiotics, recurrently for allergies, sinusitis.
Went to MD Anderson—found cancer in different place of the prostate, but Cancer was confirmed nonetheless. Gleason stage 7.
Started on Phase I for 2 months (had severe die-off ×4 days—including fever), nystatin thereafter ×2 months. Cont'd diet for 4 months and stays on a variant of the diet. On UGN, Caprylic acid, GSE now ×3 months. Saw John Hogan, D.O. (OKC). Past 2 yrs: PSA now is 1.1. Was closer to 4.0 at the time of cancer diagnosis.
F/U Ultrasound: cannot find any tumors. Whole body scans have been negative.

[7] = test system: primary human urothelial cells; details: cited from earlier work
[8] = in vivo; cited from earlier work
[9] = test system: p53 tumor suppressor gene; details: cited from earlier work

## [Se] [Selenium]
[1]
  lower risk of developing cancer: 37%
  lower risk of dying from the cancer: 50%

## CC/C(=C(\c1ccccc1)c1ccc(OCCN(C)C)cc1)c1ccccc1 [Tamoxifen]
[2]
  antifungal action: marked antifungal action
[3]
  antifungal action: marked antifungal action

## C[C@@H]1[C@H](O)[C@@H](C)/C=C/C=C/C=C/C=C/C=C/C=C/C=C/[C@H](O[C@@H]2O[C@H](C)[C@@H](O)[C@H](N)[C@@H]2O)C[C@@H]2O[C@](O)(C[C@@H](O)C[C@@H](O)[C@H](O)CC[C@@H](O)C[C@@H](O)CC(=O)O[C@H]1C)C[C@H](O)[C@H]2C(=O)O [amphotericin B]
[4]
  effect on (secondary) fungal infections: cured their (secondary) fungal infections
  effect on cancer (leukemia): successfully treated their cancer

## OC(Cn1cncn1)(Cn1cncn1)c1ccc(F)cc1F [fluconazole]
[4]
  effect on (secondary) fungal infections: cured their (secondary) fungal infections
  effect on cancer (leukemia): successfully treated their cancer

## CC(=O)N1CCN(c2ccc(OCC3COC(Cn4ccnc4)(c4ccc(Cl)cc4Cl)O3)cc2)CC1 (stereo not shown) [ketoconazole]
[5]
  effect on PSA levels: lowered PSA levels

## C[C@@H]1[C@H](O)[C@@H](C)/C=C/C=C/CC/C=C/C=C/C=C/C=C/C(O[C@H]2O[C@H](C)[C@@H](O)[C@H](N)[C@@H]2O)CC2O[C@](O)(CC(O)C(O)CCC(O)CC(O)CC(O)CC(=O)O[C@H]1C)CC(O)C2C(=O)O (stereo partly shown) [nystatin]
[6]
  PSA: 1.1

## C[C@@H]1Cc2c(Cl)cc(C(=O)N[C@@H](Cc3ccccc3)C(=O)O)c(O)c2C(=O)O1 [ochratoxin A]
[7]
  unscheduled DNA synthesis: Induction of unscheduled DNA synthesis

## aflatoxin B1
[8]
  liver carcinoma after exposure: develop liver carcinoma
[9]
  mutation of p53 tumor suppressor gene: induces the transversion of G→T in codon 249
